We go through one compound from patent US5474928A, “Arginine deiminase from a Mycoplasma arginini strain” (Nippon Mining Company, Limited, priority 1989, dated 1995).

The target in test [1] is T1, Mycoplasma arginini (IFO 14476) arginine deiminase (EC 3.5.3.6), present invention, amino acid sequence of FIG. 4 (Mycoplasmopsis arginini, UniProt P23793).
T1 construct: Arginine deiminase was purified from the M. arginini cell extract; endogenous in cells; host or cells: Mycoplasma arginini IFO 14476 cells (strain from the Institute for Fermentation, Osaka); enzyme purified in house by three chromatography steps
The test is described as follows: Km determination by Lineweaver-Burk plot analysis, citrulline formation assay. In kind it is biochemical. The settings on record: purified enzyme from M. arginini, substrate L-arginine. The procedure: The activity of arginine deiminase can be determined by causing it to produce citrulline using the method reported by Fenske et. al. [J. Bacteriol. 126, 501-510 (1976)], and by measuring the amount of the yields using the method given by Archibald [J. Biol. Chem. 156, 121-142 (1944)].
Specifically, 20 μl of arginine deiminase solution is added to 1.0 ml of 10 mM arginine [dissolved in 0.1M phosphate buffer of pH 7.0], then an enzyme reaction is allowed to take place at 37° C. for 10 minutes, and the reaction is terminated by adding 1 ml of mixed acid solution (H2 SO4 :H3 PO4 =1:3). Then, the resultant reactive solution is added with 25 μl of 3% aqueous diacetylmonooxim solution, heated at 100° C. for 20 minutes under a light-shielded condition, left to cool under a room temperature for 30 minutes, and then the amount of the citrulline yield is measured quantitatively by measuring the absorbence at 490 nm. The activity of arginine deiminase producing 1 μmol of citrulline in one minute is defined as 1 unit.
v) Km value and Vmax value
By the Lineweaver-Burk plot analysis Km and Vmax were determined as 0.2 mM and 50 U/mg, respectively.

The test system of test [2] is M. arthritidis arginine deiminase. The settings on record: literature value, Table 1; substrate L-arginine; cited from earlier work.
In test [3] the test system is M. hominis arginine deiminase. The following applies: literature value, Table 1; substrate L-arginine; cited from earlier work.
The test system of test [4] is Strepto- faecalis arginine deiminase. The following applies: literature value, Table 1; substrate L-arginine; cited from earlier work.

T1 sequence (P23793 whole entry): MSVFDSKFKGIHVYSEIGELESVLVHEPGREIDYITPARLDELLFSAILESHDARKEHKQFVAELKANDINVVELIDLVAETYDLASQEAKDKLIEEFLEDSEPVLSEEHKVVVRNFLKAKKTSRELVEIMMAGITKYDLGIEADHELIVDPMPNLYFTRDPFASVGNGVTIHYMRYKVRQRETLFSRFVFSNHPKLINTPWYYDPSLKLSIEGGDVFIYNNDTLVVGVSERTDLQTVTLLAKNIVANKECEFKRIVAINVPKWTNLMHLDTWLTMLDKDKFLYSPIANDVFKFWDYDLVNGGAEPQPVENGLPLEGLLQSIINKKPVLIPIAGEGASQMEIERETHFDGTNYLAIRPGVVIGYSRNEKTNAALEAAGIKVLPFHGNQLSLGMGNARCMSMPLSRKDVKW

One may read the Km as the substrate concentration at which the rate is half of its maximum. With `N=C(N)NCCC[C@H](N)C(=O)O` [L-arginine], the Km in test [1] was ~200 µM; in test [2], 4 µM; in test [3], 100 to 400 µM; in test [4], 150 µM.
